Source: the supplement of paper PMC10307832

Assays:
Test in all cases: relative viability (nuclei count vs DMSO), 5 days (fraction); higher = more cells survive
Lestaurtinib + Foretinib = compound: C[C@]12O[C@H](C[C@]1(O)CO)n1c3ccccc3c3c4c(c5c6ccccc6n2c5c31)CNC4=O [Lestaurtinib] + COc1cc2c(Oc3ccc(NC(=O)C4(C(=O)Nc5ccc(F)cc5)CC4)cc3F)ccnc2cc1OCCCN1CCOCC1 [Foretinib] (partner 0.25 µM)
Method in brief: (§1)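 Relative viability was taken as the ratio of nuclei in treated wells to nuclei in vehicle wells. Lung cancer cell lines in 1536-well plates received compounds by pin tool one day after seeding, either one drug alone or a fixed anchor-drug dose plus five library-drug doses (not always all listed) in √10 steps. Nuclei were counted on 4× images after 5 days of treatment, and values are medians of duplicate plates.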

[1] = compound: C1/C(=C\C2=CC=CS2)/C(=O)/C(=C/C3=CC=CS3)/C1 + C[C@]1(O)C[C@@H](c2nc(-c3ccc4ccc(-c5ccccc5)nc4c3)c3c(N)nccn32)C1 [Linsitinib] (partner 1 µM)
Method in brief: as §1

TPCA-1 + Navitoclax = compound: C1=CC(=CC=C1C2=CC(=C(S2)NC(=O)N)C(=O)N)F [TPCA-1] + CC1(C)CCC(c2ccc(Cl)cc2)=C(CN2CCN(c3ccc(C(=O)NS(=O)(=O)c4ccc(N[C@H](CCN5CCOCC5)CSc5ccccc5)c(S(=O)(=O)C(F)(F)F)c4)cc3)CC2)C1 [Navitoclax] (partner 0.5 µM)
Method in brief: as §1

Lestaurtinib + Alpelisib = compound: C[C@]12O[C@H](C[C@]1(O)CO)n1c3ccccc3c3c4c(c5c6ccccc6n2c5c31)CNC4=O [Lestaurtinib] + Cc1nc(NC(=O)N2CCC[C@H]2C(N)=O)sc1-c1ccnc(C(C)(C)C(F)(F)F)c1 [Alpelisib] (partner 2 µM)
Method in brief: as §1

Row | Cell Line | relative viability (Lestaurtinib + Foretinib; first compound 0.005 µM) | relative viability (Lestaurtinib + Foretinib; first compound 0.01581 µM) | relative viability (Lestaurtinib + Foretinib; first compound 0.05 µM) | relative viability (Lestaurtinib + Foretinib; first compound 0.1581 µM) | relative viability (Lestaurtinib + Foretinib; first compound 0.5 µM) | relative viability ([1]; first compound 0.2 µM) | relative viability ([1]; first compound 0.6325 µM) | relative viability ([1]; first compound 2 µM) | relative viability ([1]; first compound 6.325 µM) | relative viability ([1]; first compound 20 µM) | relative viability (TPCA-1 + Navitoclax; first compound 0.04 µM) | relative viability (TPCA-1 + Navitoclax; first compound 0.1265 µM) | relative viability (TPCA-1 + Navitoclax; first compound 0.4 µM) | relative viability (TPCA-1 + Navitoclax; first compound 1.265 µM) | relative viability (TPCA-1 + Navitoclax; first compound 4 µM) | relative viability (Lestaurtinib + Alpelisib; first compound 0.005 µM) | relative viability (Lestaurtinib + Alpelisib; first compound 0.01581 µM) | relative viability (Lestaurtinib + Alpelisib; first compound 0.05 µM) | relative viability (Lestaurtinib + Alpelisib; first compound 0.1581 µM) | relative viability (Lestaurtinib + Alpelisib; first compound 0.5 µM)
1 | SW 900 | 0.719 | 0.891 | 1.17 | 0.868 | 0.793 |  |  |  |  |  |  |  |  |  |  |  |  |  |  | 
2 | NCI-H1944 | 0.909 | 0.848 | 0.698 | 0.652 | 0.366 | 1.32 | 1.09 | 1.23 | 1.17 | 1.01 | 1.07 | 0.949 | 1.06 | 0.921 | 0.823 | 0.82 | 0.745 | 0.61 | 0.41 | 0.383
3 | NCI-H727 | 1.05 | 0.991 | 1.05 | 0.756 | 0.33 | 0.263 | 0.302 | 0.314 | 0.228 | 0.263 | 0.409 | 0.431 | 0.512 | 0.413 | 0.404 | 0.627 | 0.481 | 0.554 | 0.49 | 0.155
4 | NCI-H1650 | 1.03 | 1.24 | 1.37 | 1.26 | 0.694 |  |  |  |  |  | 1.3 | 1.05 | 1.27 | 1.09 | 1.1 |  |  |  |  | 
5 | HCC-827 | 1.02 | 1.02 | 0.835 | 0.803 | 0.202 | 1.05 | 0.953 | 0.923 | 0.929 | 0.903 | 0.996 | 1.04 | 1.04 | 1 | 0.683 | 0.948 | 0.905 | 0.862 | 0.585 | 0.311
6 | HCC-366 | 0.939 | 0.924 | 0.994 | 1.03 | 0.536 | 0.701 | 0.574 | 0.647 | 0.467 | 0.6 | 1.01 | 0.942 | 1.14 | 0.952 | 1 | 0.477 | 0.438 | 0.388 | 0.287 | 0.209
7 | HARA | 0.958 | 0.856 | 0.838 | 0.827 | 0.126 | 0.968 | 1.06 | 0.898 | 0.242 | 0.902 | 1.13 | 1.08 | 1.16 | 1.08 | 1.08 | 0.769 | 0.825 | 0.639 | 0.487 | 0.176
8 | NCI-H322M | 0.935 | 1.02 | 0.523 | 0.609 | 0.45 | 0.995 | 0.909 | 1.11 | 0.81 | 0.845 | 1.26 | 1.07 | 1.18 | 1.13 | 1.17 | 0.853 | 0.789 | 0.508 | 0.325 | 0.405
9 | LXF-289 | 1.02 | 1.04 | 0.827 | 0.905 | 0.198 | 0.981 | 1.03 | 0.922 | 0.912 | 0.984 | 0.937 | 0.907 | 0.949 | 0.915 | 0.839 | 1.05 | 1.09 | 0.695 | 0.91 | 0.178
10 | PC-3 [JPC-3] | 1.01 | 1.1 | 0.938 | 0.902 | 0.558 | 1.1 | 0.956 | 0.949 | 0.891 | 0.949 | 0.839 | 0.807 | 0.802 | 0.677 | 0.719 | 1.03 | 1.1 | 0.985 | 0.913 | 0.65
11 | CAL-12T | 1.25 | 1.22 | 1.03 | 1.13 | 0.696 | 0.837 | 0.964 | 0.764 | 0.744 | 0.92 | 1.1 | 1.15 | 1.17 | 1.16 | 1.11 | 1.12 | 1.3 | 1.19 | 0.502 | 0.385
12 | COR-L 105 | 1.29 | 1.19 | 1.27 | 1.18 | 0.669 | 0.976 | 0.905 | 0.939 | 0.766 | 0.878 | 0.964 | 0.642 | 0.962 | 0.636 | 0.64 | 1.07 | 0.926 | 0.773 | 0.583 | 0.248
13 | NCI-H2347 | 1.18 | 1.38 | 0.865 | 0.98 | 0.598 | 0.918 | 0.953 | 0.922 | 0.891 | 0.938 | 0.788 | 0.855 | 0.726 | 0.568 | 0.762 | 1.1 | 1.22 | 0.91 | 0.573 | 0.606
14 | NCI-H2126 | 1.19 | 1.31 | 1.1 | 1.1 | 0.926 | 0.673 | 0.698 | 0.754 | 0.553 | 0.709 | 0.866 | 0.791 | 0.899 | 0.812 | 0.767 | 0.785 | 0.746 | 0.608 | 0.681 | 0.478
